Data published in PMC5995905, “Confirmation of high-throughput screening data and novel mechanistic insights into VDR-xenobiotic interactions by orthogonal assays” (Scientific Reports, 2018).
Values joined by “and” are separate entries in the source; they are usually repeats but may differ in a detail not shown here. Equal values may be shown once. “Also recorded” adds a separate entry of the source. Read-outs that look alike come from different tables or passages of the source.

Columns and labels:
human VDR [1] = target: T1, human VDR (Homo sapiens, UniProt P11473); test: Transient transactivation assay (CYP24-Luc), agonist mode, HEK293T cells
T1 sequence (P11473 1-427): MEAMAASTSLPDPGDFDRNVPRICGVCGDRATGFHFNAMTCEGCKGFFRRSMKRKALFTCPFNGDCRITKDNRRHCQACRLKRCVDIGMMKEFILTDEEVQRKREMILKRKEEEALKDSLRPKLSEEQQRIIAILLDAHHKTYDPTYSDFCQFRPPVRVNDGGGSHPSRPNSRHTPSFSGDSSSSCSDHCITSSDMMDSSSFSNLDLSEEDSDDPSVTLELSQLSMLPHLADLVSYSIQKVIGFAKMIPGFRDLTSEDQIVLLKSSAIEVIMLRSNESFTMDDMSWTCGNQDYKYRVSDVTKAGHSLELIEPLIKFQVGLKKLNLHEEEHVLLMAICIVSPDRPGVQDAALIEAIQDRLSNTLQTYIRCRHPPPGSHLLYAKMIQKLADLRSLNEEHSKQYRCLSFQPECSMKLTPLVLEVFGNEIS

VDR:SRC-1 = VDR:SRC-1 (Homo sapiens, UniProt P11473); test: Mammalian 2-hybrid assay, recruitment of coactivator SRC-1 by VDR, Cos7 cells
human VDR [2] = target: T1, human VDR
[3] = target: human VDR ligand-binding domain; set-up: method as in PMID 21543282; conditions: agonist mode, cited from earlier work; for AC50: Tox21 qHTS data set, * = range of values
[4] = target: T2, VDR:RXR, VDR:SRC-1 and VDR:NCoR interactions (Homo sapiens, UniProt P11473); test: Mammalian 2-hybrid assay, summary in words of VDR coregulator interactions; format: cell-based
T2 sequence (P11473 1-427): T1 sequence (P11473 1-427)

VDR:NCoR = target: T3, VDR:NCoR (Homo sapiens, UniProt P11473); test: Mammalian 2-hybrid assay, recruitment of corepressor NCoR by VDR, Cos7 cells
T3 sequence (P11473 1-427): T1 sequence (P11473 1-427)

VDR:RXRα = target: T4, VDR:RXRα (Homo sapiens, UniProt P11473); test: Mammalian 2-hybrid assay, recruitment of RXRα by VDR, Cos7 cells
T4 sequence (P11473 1-427): T1 sequence (P11473 1-427)

[5] = target: human VDR ligand-binding domain; set-up: method as in PMID 21543282; conditions: read-out: Tox21 IC 50, cited from earlier work
human VDR [6] = target: T1, human VDR; test: Transient transactivation assay (CYP24-Luc), antagonist mode with 3 nM 1,25D3, HEK293T cells; format: cell-based
[7] = AC50 (μM), experimental AC50 as listed in Fig 4a, agonists
[8] = Derived AC50 (Transient transactivation assay), agonist mode, HEK293T cells, CYP24A1-Luc
[9] = agonists, orthogonal transient transactivation assay, HEK293T cells
[10] = agonists, -RXR (empty pSG5), percentage of vitamin D3, conc. in Fig 5: ergocalciferol 60, lithocholic acid 50, calcipotriol 0.05, ethylphenol compound 40, 9 aminoacridine 50, tamoxifen citrate 20 μM
[11] = Derived AC50 (Transient transactivation assay)
[12] = read-out: Derived IC 50 (Transient transactivation assay)
[13] = top asymptote of Hill or Gain-Loss model, maximum response
[14] = read-out: Derived AC50 (Transient transactivation assay)

Cc1cc(Cc2cc(C)cc(C(C)(C)C)c2O)c(O)c(C(C)(C)C)c1 [2,2′-methylenebis(6-tert-butyl-4-methylphenol)]
AC50 (human VDR [1]; [7]): 4.62 µM | AC50 (human VDR [1]; [8]): 9.32 µM | Activity (human VDR [1]; [9]): Active | % Induction, pMSRC-1NR + EpSG5 (VDR:SRC-1; [10]): 8.2% | Derived Efficacy (fold induction) (human VDR [2]): 29.470 fold induction | AC50 [3]: 32.1 µM

Cc1cccc2c1cc1ccc3cccc4ccc2c1c34 [7 methyl benzo (a) pyrene]
Activity (human VDR [1]): Active | AC50 (human VDR [1]; [11]): 10.6 µM | pattern of VDR:coregulator interaction facilitated by the ligand [4]: Interaction between VDR:RXR only in the presence of co transfected SRC-1 | Derived Efficacy (fold induction) (human VDR [2]): 19.1624 fold induction | AC50 [3]: 2.54 µM

Cl.Nc1c2ccccc2nc2ccccc12 [9 Aminoacridine monohydrochloride]
AC50 (human VDR [1]; [7]): 10.9 µM | AC50 (human VDR [1]; [8]): 12.6 µM | Activity (human VDR [1]; [9]): Active | % Induction, pMSRC-1NR + EpSG5 (VDR:SRC-1; [10]): 14.4% | Derived Efficacy (fold induction) (human VDR [2]): 44.5165 fold induction | Fold Change (pMNCoR + EpSG5) (VDR:NCoR; agonists, -RXR, fold induction compared to DMSO, 9 aminoacridine at 50 μM in Fig 5): 67.7 fold | AC50 [3]: 4.25 to 11.1 µM

c1csc(-c2ccc(-c3cccs3)s2)c1 [Alpha-Terthiophene]
AC50 (human VDR [1]; [8]): 0.305 µM | Activity (human VDR [1]; [9]): Active | pattern of VDR:coregulator interaction facilitated by the ligand [4]: Interaction between VDR:RXR only in the absence of full length SRC-1 | Derived Efficacy (fold induction) (human VDR [2]): 19.9132 fold induction | AC50 [3]: 15.7 µM

[Cl][Cd][Cl] [Cadmium chloride]
pattern of change of 1,25D3 induced VDR:coregulator interaction [4]: enhanced recruitment of VDR:RXR and VDR:SRC-1 in both the presence and absence of co-expressed coregulators | % Induction (pMRXRα + EpSG5) (VDR:RXRα): 175 | IC50 [5]: 0.171 µM | Fold Change (pMNCoR + EpSG5) (VDR:NCoR): 1.1 | Activity (human VDR [6]): Active | Derived Efficacy (fold inhibition) (human VDR [6]): 44.5165 fold inhibition | IC50 (human VDR [6]; [12]): 0.38 µM

CC(C)C[C@H](NC(=O)[C@H](CCc1ccccc1)NC(=O)CN1CCOCC1)C(=O)N[C@@H](Cc1ccccc1)C(=O)N[C@@H](CC(C)C)C(=O)[C@@]1(C)CO1 [Carfizomib, reference compound]
Activity (human VDR [1]; [9]): very weak agonist activity | % Induction (pMSRC-1NR + RXRα) (VDR:SRC-1; antagonists with 1,25D3, +RXR, percentage of vitamin D3, conc. in Fig 6: Cd chloride 12, dibutyltin dichloride 1, K dicyanoaurate 6, proscillaridin, aristolochic acid, carfizomib 12 μM): 296% | % Induction (pMRXRα + EpSG5) (VDR:RXRα; antagonists with 1,25D3, -SRC-1, percentage of vitamin D3, conc. in Fig 6: phenylarsine oxide 0.37, dibutyltin dichloride 1, K dicyanoaurate 6, aristolochic acid, carfizomib 12, menadiol 3 μM): 1908.1% | IC50 ([5]; antagonist mode, Tox21 qHTS data set): 0.748 µM | Activity (human VDR [6]; antagonists, transient transactivation assay in the presence of 3 nM 1,25D3): Active | Activity (human VDR [6]; antagonists, transient transactivation assay in the presence of 3 nM 1,25D3, listed as carfizomib): moderate to marked synergistic activity | IC50 (human VDR [6]; inhibition of 3 nM 1,25D3-induced response, HEK293T cells, unit given in Fig 3 legend, read-out: Derived IC 50 (Transient transactivation assay)): 0.53 µM and 0.538 µM | Derived Efficacy (fold inhibition) (human VDR [6]; [13]): 80.6485 fold inhibition

O=S(=O)(O)c1ccccc1C=Cc1ccc(-c2ccc(C=Cc3ccccc3S(=O)(=O)O)cc2)cc1.[Na].[Na] [Disodium 4,4′-bis(2-sulfostyryl) biphenyl]
Activity (human VDR [1]): Active | AC50 (human VDR [1]; [14]): 0.394 µM | pattern of VDR:coregulator interaction facilitated by the ligand [4]: did not facilitate VDR:RXR or VDR:SRC-1 interactions under any condition | Derived Efficacy (fold induction) (human VDR [2]): 9.4578 fold induction | AC50 [3]: 18 µM

CN1CCC(Nc2ncc3ncnc(Nc4ccc(F)c(Cl)c4)c3n2)CC1.Cl.Cl [Falnidamol dihydrochloride]
Activity (human VDR [1]): consistently failed to exhibit any concentration response interactions; also recorded: Inactive | pattern of VDR:coregulator interaction facilitated by the ligand [4]: induced recruitment of RXR both in the presence and absence of co-transfected SRC-1 | % Induction (pMRXRα + EpSG5) (VDR:RXRα): 5.3 | % Induction (pMRXRα + SRC- 1) (VDR:RXRα): 3.7 | Derived Efficacy (fold induction) (human VDR [2]): 9.9267 fold induction | AC50 [3]: 3.3 µM | activity in the Tox21 qHTS data set [3]: active

O=C(NC(=O)c1c(F)cccc1F)Nc1ccc(OC(F)(F)C(F)OC(F)(F)F)c(Cl)c1 (stereo not shown) [Novaluron]
Activity (human VDR [1]): Active | AC50 (human VDR [1]; [14]): 37.4 µM | % Induction, pMSRC-1NR + EpSG5 (VDR:SRC-1): 0.9 | pattern of VDR:coregulator interaction facilitated by the ligand [4]: Interaction between VDR:SRC-1 only in the absence of RXR | Derived Efficacy (fold induction) (human VDR [2]): 16.3718 fold induction | AC50 [3]: 23.4 µM

C[C@@H]1O[C@@H](O[C@@H]2C=C3CC[C@@H]4[C@H](CC[C@]5(C)[C@@H](c6ccc(=O)oc6)CC[C@]45O)[C@@]3(C)CC2)[C@H](O)[C@H](O)[C@H]1O [Proscillaridin, reference compound]
pattern of change of 1,25D3 induced VDR:coregulator interaction [4]: selectively inhibited VDR:SRC-1 interactions only in the presence of full length wild type RXR; also recorded: enhanced the interaction between VDR:RXR only in the presence of co transfected SRC-1 | IC50 [5]: 0.0433 µM | Fold Change (pMNCoR + EpSG5) (VDR:NCoR): 2.8 | Activity (human VDR [6]): Active | Derived Efficacy (fold inhibition) (human VDR [6]): 14.1669 fold inhibition | IC50 (human VDR [6]; Derived IC 50 (Transient transactivation assay)): 1.89 µM and 1.9 µM

Nc1nc(N)c2nc(CNc3ccc(C(=O)N[C@@H](CCC(=O)O)C(=O)O)cc3)cnc2n1 [reference compound]
AC50 (human VDR [1]; [11]): 33.7 µM | Derived Efficacy (fold induction) (human VDR [1]; [13]): 16.3718 fold induction | pattern of VDR:coregulator interaction facilitated by the ligand [4]: did not facilitate VDR:RXR or VDR:SRC-1 interactions under any condition | Activity (human VDR [2]): Active | AC50 [3]: 11.8 µM

Cadmium acetate dihydrate
% Induction (pMSRC-1NR + RXRα) (VDR:SRC-1): 46.7 | % Induction, pMSRC-1NR + EpSG5 (VDR:SRC-1): 51.7 | pattern of change of 1,25D3 induced VDR:coregulator interaction [4]: enhanced the interaction between VDR:RXR only in the presence of co transfected SRC-1 | % Induction (pMRXRα + SRC- 1) (VDR:RXRα): 165.6 | IC50 [5]: 0.271 µM | Activity (human VDR [6]): Active | Derived Efficacy (fold inhibition) (human VDR [6]): 20.5478 fold inhibition

Cadmium reference solution
% Induction (pMSRC-1NR + RXRα) (VDR:SRC-1): 0.9 | % Induction, pMSRC-1NR + EpSG5 (VDR:SRC-1): 1.3 | % Induction (pMRXRα + EpSG5) (VDR:RXRα): 23.7 | % Induction (pMRXRα + SRC- 1) (VDR:RXRα): 16 | Fold Change (pMNCoR + EpSG5) (VDR:NCoR): 0.7 | Activity (human VDR [6]): Active | Derived Efficacy (fold inhibition) (human VDR [6]): 76.1807 fold inhibition | IC50 (human VDR [6]; [12]): 0.198 µM
